What was measured:
Assay type in all cases: in vivo
[1] = test system: crabgrass, large (Digitaria sanguinalis); assay: Test A postemergence
How it was run: (§1)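 Preemergence directed soil spray on seeded pots, or postemergence application to plants 2–10 cm, one- to two-leaf. Solvent mixture non-phytotoxic, with surfactant. Scored ~10 d later, visually, 0–100 vs untreated.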

[2] = test system: velvetleaf (Abutilon theophrasti); assay: Test A postemergence
How it was run: as §1

[3] = test system: barnyardgrass (Echinochloa crus-galli); assay: Test A postemergence
How it was run: as §1

[4] = test system: wheat (Triticum aestivum); assay: Test A postemergence
How it was run: as §1

[5] = test system: morningglory (Ipomoea spp.); assay: Test A postemergence
How it was run: as §1

[6] = test system: giant foxtail (Setaria faberii); assay: Test A postemergence
How it was run: as §1

[7] = test system: pigweed (Amaranthus retroflexus); assay: Test A postemergence
How it was run: as §1

corn (Zea mays) [8] = assay: Test A postemergence
How it was run: as §1

[9] = test system: crabgrass, large (Digitaria sanguinalis); assay: Test A preemergence; conditions: for Plant response rating, Crabgrass, Large: 125 g ai/ha, preemergence, 0 to 100 scale (0 no effect, 100 complete control); for Crabgrass, Large plant response rating (0 to 100 scale): Preemergence, 500 g ai/ha, 0 is no effect, 100 is complete control
How it was run: as §1

[10] = test system: velvetleaf (Abutilon theophrasti); assay: Test A preemergence; conditions: for Plant response rating, Velvetleaf: 125 g ai/ha, preemergence, 0 to 100 scale (0 no effect, 100 complete control); for Velvetleaf plant response rating (0 to 100 scale): Preemergence, 500 g ai/ha, 0 is no effect, 100 is complete control
How it was run: as §1

[11] = test system: barnyardgrass (Echinochloa crus-galli); assay: Test A preemergence; conditions: for Plant response rating, Barnyardgrass: 125 g ai/ha, preemergence, 0 to 100 scale (0 no effect, 100 complete control); for Barnyardgrass plant response rating (0 to 100 scale): Preemergence, 500 g ai/ha, 0 is no effect, 100 is complete control
How it was run: as §1

[12] = test system: wheat (Triticum aestivum); assay: Test A preemergence; conditions: for Plant response rating, Wheat: 125 g ai/ha, preemergence, 0 to 100 scale (0 no effect, 100 complete control); for Wheat plant response rating (0 to 100 scale): Preemergence, 500 g ai/ha, 0 is no effect, 100 is complete control
How it was run: as §1

[13] = test system: morningglory (Ipomoea spp.); assay: Test A preemergence; conditions: for Plant response rating, Morningglory: 125 g ai/ha, preemergence, 0 to 100 scale (0 no effect, 100 complete control); for Morningglory plant response rating (0 to 100 scale): Preemergence, 500 g ai/ha, 0 is no effect, 100 is complete control
How it was run: as §1

[14] = test system: giant foxtail (Setaria faberii); assay: Test A preemergence; conditions: for Plant response rating, Foxtail, Giant: 125 g ai/ha, preemergence, 0 to 100 scale (0 no effect, 100 complete control); for Foxtail, Giant plant response rating (0 to 100 scale): Preemergence, 500 g ai/ha, 0 is no effect, 100 is complete control
How it was run: as §1

[15] = test system: pigweed (Amaranthus retroflexus); assay: Test A preemergence; conditions: for Plant response rating, Pigweed: 125 g ai/ha, preemergence, 0 to 100 scale (0 no effect, 100 complete control); for Pigweed plant response rating (0 to 100 scale): Preemergence, 500 g ai/ha, 0 is no effect, 100 is complete control
corn (Zea mays) [16] = assay: Test A preemergence; conditions: for Plant response rating, Corn: 125 g ai/ha, preemergence, 0 to 100 scale (0 no effect, 100 complete control); for Corn plant response rating (0 to 100 scale): Preemergence, 500 g ai/ha, 0 is no effect, 100 is complete control
How it was run: as §1

rice (Oryza sativa) = assay: Test C flooded paddy test; conditions: Flood, 0 is no effect, 100 is complete control
How it was run: (§2)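 Test compounds were dosed straight into the flood water of pots holding 2-leaf-stage plants, with water kept 3 cm above the soil. Greenhouse plants were scored visually against controls after 13 to 15 d, from 0 (no effect) to 100 (complete control).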

[17] = test system: barnyardgrass (Echinochloa crus-galli); assay: Test C flooded paddy test; conditions: Flood, 0 is no effect, 100 is complete control
How it was run: as §2

[18] = test system: sedge, umbrella (small-flower umbrella sedge, Cyperus difformis); assay: Test C flooded paddy test; conditions: Flood, 0 is no effect, 100 is complete control
How it was run: as §2

[19] = test system: ducksalad (Heteranthera limosa); assay: Test C flooded paddy test; conditions: Flood, 0 is no effect, 100 is complete control
How it was run: as §2

rice (Oryra sativa) = assay: Test B flooded paddy test; conditions: Flood, 0 to 100 scale where 0 is no effect and 100 is complete control, 13 to 15 d
How it was run: (§3)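 Greenhouse paddy pots with 2-leaf stage plants received compound by direct addition to floodwater 3 cm deep, kept at that level. Scored visually at 13–15 d versus controls (0 no effect; 100 complete control).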

[20] = test system: barnyardgrass (Echinochloa crus-galli); assay: Test B flooded paddy test; conditions: Flood, 0 to 100 scale where 0 is no effect and 100 is complete control, 13 to 15 d
How it was run: as §3

[21] = test system: sedge, umbrella (small-flower umbrella sedge, Cyperus difformis); assay: Test B flooded paddy test; conditions: Flood, 0 to 100 scale where 0 is no effect and 100 is complete control, 13 to 15 d
How it was run: as §3

[22] = test system: ducksalad (Heteranthera limosa); assay: Test B flooded paddy test; conditions: Flood, 0 to 100 scale where 0 is no effect and 100 is complete control, 13 to 15 d
How it was run: as §3

[23] = 500 g ai/ha, postemergence, 0 to 100 scale, 0 no effect, 100 complete control
[24] = Postemergence, 125 g ai/ha, visual injury, 0 to 100 scale (0 no effect, 100 complete control), approx. 10 d

Compound | Plant response rating, Crabgrass, Large [1, 23] | Plant response rating, Crabgrass, Large [1, 24] | Plant response rating, Velvetleaf [2, 23] | Plant response rating, Velvetleaf [2, 24] | Plant response rating, Barnyardgrass [3, 23] | Plant response rating, Barnyardgrass [3, 24] | Plant response rating, Wheat [4, 23] | Plant response rating, Wheat [4, 24] | Plant response rating, Morningglory [5, 23] | Plant response rating, Morningglory [5, 24] | Plant response rating, Foxtail, Giant [6, 23] | Plant response rating, Foxtail, Giant [6, 24] | Plant response rating, Pigweed [7, 23] | Plant response rating, Pigweed [7, 24] | Plant response rating, Corn (corn (Zea mays) [8]; [23]) | Plant response rating, Corn (corn (Zea mays) [8]; [24]) | Plant response rating, Crabgrass, Large [9] | Crabgrass, Large plant response rating (0 to 100 scale) [9] | Plant response rating, Velvetleaf [10] | Velvetleaf plant response rating (0 to 100 scale) [10] | other results
O=C1NCC(c2ccoc2)C1C(=O)Nc1ccccc1F (racemic) [Compound 356] | 0 | 0 | 0 | 0 | 0 | 0 | 0 | 0 | 0 | 0 | 0 | 0 | 0 | 0 | 0 | 0 | 0 | 0 | 0 | 0 | Plant response rating, Barnyardgrass [11]: 0; Barnyardgrass plant response rating (0 to 100 scale) [11]: 0; Plant response rating, Wheat [12]: 0; Wheat plant response rating (0 to 100 scale) [12]: 0; Plant response rating, Morningglory [13]: 0; Morningglory plant response rating (0 to 100 scale) [13]: 0; Plant response rating, Foxtail, Giant [14]: 0; Foxtail, Giant plant response rating (0 to 100 scale) [14]: 0; Plant response rating, Pigweed [15]: 0; Pigweed plant response rating (0 to 100 scale) [15]: 0; Plant response rating, Corn (corn (Zea mays) [16]): 0; Corn plant response rating (0 to 100 scale) (corn (Zea mays) [16]): 0; Plant response rating (scale of 0 to 100), Rice (rice (Oryza sativa); 62 g ai/ha): 0; Plant response rating (scale of 0 to 100), Rice (rice (Oryza sativa); 250 g ai/ha): 0; Plant response rating (scale of 0 to 100), Barnyardgrass ([17]; 62 g ai/ha): 0; Plant response rating (scale of 0 to 100), Barnyardgrass ([17]; 250 g ai/ha): 0; Plant response rating (scale of 0 to 100), Sedge, Umbrella ([18]; 62 g ai/ha): 0; Plant response rating (scale of 0 to 100), Sedge, Umbrella ([18]; 250 g ai/ha): 0; Plant response rating (scale of 0 to 100), Ducksalad ([19]; 62 g ai/ha): 0; Plant response rating (scale of 0 to 100), Ducksalad ([19]; 250 g ai/ha): 0
O=C1NCC(c2ccc(-c3ccccc3)cc2)C1C(=O)Nc1ccccc1F (racemic) [Compound 365] | 0 | 0 | 0 | 0 | 0 | 0 | 0 | 0 | 0 | 0 | 0 | 0 | 0 | 0 | 0 | 0 | 0 | 0 | 0 | 0 | Plant response rating, Rice (rice (Oryra sativa); 1000 g ai/ha): 0; Plant response rating, Barnyardgrass ([20]; 1000 g ai/ha): 0; Plant response rating, Sedge, Umbrella ([21]; 1000 g ai/ha): 0; Plant response rating, Ducksalad ([22]; 1000 g ai/ha): 0; Plant response rating, Barnyardgrass [11]: 0; Barnyardgrass plant response rating (0 to 100 scale) [11]: 0; Plant response rating, Wheat [12]: 0; Wheat plant response rating (0 to 100 scale) [12]: 0; Plant response rating, Morningglory [13]: 0; Morningglory plant response rating (0 to 100 scale) [13]: 0; Plant response rating, Foxtail, Giant [14]: 0; Foxtail, Giant plant response rating (0 to 100 scale) [14]: 0; Plant response rating, Pigweed [15]: 0; Pigweed plant response rating (0 to 100 scale) [15]: 0; Plant response rating, Corn (corn (Zea mays) [16]): 0; Corn plant response rating (0 to 100 scale) (corn (Zea mays) [16]): 0
O=C1NCC(c2ccc(-c3ccccc3)cc2)C1C(=O)Nc1cccc(F)c1F (racemic) [Compound 366] | 0 | 0 | 0 | 0 | 0 | 0 | 0 | 0 | 0 | 0 | 0 | 0 | 0 | 0 | 0 | 0 | 0 | 0 | 0 | 0 | Plant response rating, Rice (rice (Oryra sativa); 1000 g ai/ha): 0; Plant response rating, Barnyardgrass ([20]; 1000 g ai/ha): 0; Plant response rating, Sedge, Umbrella ([21]; 1000 g ai/ha): 0; Plant response rating, Ducksalad ([22]; 1000 g ai/ha): 0; Plant response rating, Barnyardgrass [11]: 0; Barnyardgrass plant response rating (0 to 100 scale) [11]: 0; Plant response rating, Wheat [12]: 0; Wheat plant response rating (0 to 100 scale) [12]: 0; Plant response rating, Morningglory [13]: 0; Morningglory plant response rating (0 to 100 scale) [13]: 0; Plant response rating, Foxtail, Giant [14]: 0; Foxtail, Giant plant response rating (0 to 100 scale) [14]: 0; Plant response rating, Pigweed [15]: 0; Pigweed plant response rating (0 to 100 scale) [15]: 0; Plant response rating, Corn (corn (Zea mays) [16]): 0; Corn plant response rating (0 to 100 scale) (corn (Zea mays) [16]): 0
Nc1cccc(C2CNC(=O)C2C(=O)Nc2cccc(F)c2F)c1 (stereo not shown) [Compound 354] | 0 | 0 | 0 | 0 | 0 | 0 | 0 | 0 | 0 | 0 | 0 | 0 | 0 | 0 | 0 | 0 | 0 | 0 | 0 | 0 | Plant response rating, Rice (rice (Oryra sativa); 250 g ai/ha): 20; Plant response rating, Barnyardgrass ([20]; 250 g ai/ha): 0; Plant response rating, Sedge, Umbrella ([21]; 250 g ai/ha): 20; Plant response rating, Ducksalad ([22]; 250 g ai/ha): 0; Plant response rating, Barnyardgrass [11]: 0; Barnyardgrass plant response rating (0 to 100 scale) [11]: 0; Plant response rating, Wheat [12]: 0; Wheat plant response rating (0 to 100 scale) [12]: 0; Plant response rating, Morningglory [13]: 0; Morningglory plant response rating (0 to 100 scale) [13]: 0; Plant response rating, Foxtail, Giant [14]: 0; Foxtail, Giant plant response rating (0 to 100 scale) [14]: 0; Plant response rating, Pigweed [15]: 0; Pigweed plant response rating (0 to 100 scale) [15]: 0; Plant response rating, Corn (corn (Zea mays) [16]): 0; Corn plant response rating (0 to 100 scale) (corn (Zea mays) [16]): 0

— US12077503B2, “Substituted cyclic amides and their use as herbicides” (FMC CORPORATION, priority 2015, dated 2024)
